Results on 13 molecules are retold here after ChEMBL document CHEMBL1136897, “Predictive models of Cannabinoid-1 receptor antagonists derived from diverse classes” (Bioorg Med Chem Lett, 2009).

The assay deals with Cannabinoid receptor 1 (Homo sapiens, UniProt P21554). Format: functional.
Cannabinoid receptor 1, sequence (P21554 whole entry): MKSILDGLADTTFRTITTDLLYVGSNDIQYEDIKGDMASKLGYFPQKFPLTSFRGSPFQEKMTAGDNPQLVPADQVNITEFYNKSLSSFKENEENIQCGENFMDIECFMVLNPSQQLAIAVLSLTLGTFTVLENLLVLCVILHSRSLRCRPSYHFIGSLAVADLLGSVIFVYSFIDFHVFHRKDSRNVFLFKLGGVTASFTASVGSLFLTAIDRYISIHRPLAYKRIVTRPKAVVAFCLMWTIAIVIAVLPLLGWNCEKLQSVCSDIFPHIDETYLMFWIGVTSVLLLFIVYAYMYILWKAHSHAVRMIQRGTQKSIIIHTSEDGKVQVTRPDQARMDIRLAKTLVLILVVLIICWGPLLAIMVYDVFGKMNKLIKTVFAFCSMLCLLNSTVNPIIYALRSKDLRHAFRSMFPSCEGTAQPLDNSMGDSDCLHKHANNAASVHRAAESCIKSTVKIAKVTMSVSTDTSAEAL
One may read the IC50 as the point on the concentration scale where inhibition reaches its midpoint. Read a low IC50 as greater potency in that assay. On to `CC(=O)Nc1cc(=O)n(C)c2nc(-c3ccc(Cl)cc3Cl)c(-c3ccc(Cl)cc3)cc12`, for which the IC50 is 112 nM. In turn, `CC(=O)Nc1c(C#N)c(=O)n(C)c2nc(-c3ccc(Cl)cc3Cl)c(-c3ccc(Cl)cc3)cc12` gave an IC50 of 35.5 nM. As for `CC(NC(=O)C(C)(C)Oc1cccc(Cl)c1)C(Cc1ccc(Cl)cc1)c1ccccc1` (stereo not drawn), the figure is 1.51 nM; as for `CC(C)NC(=O)N1CCN(C(c2ccc(Cl)cc2)c2ccccc2C(F)(F)F)CC1` (stereo not drawn), 6610 nM; as for `CC(NS(=O)(=O)Cc1ccccc1)C(Cc1ccc(Cl)cc1)c1cccc(C#N)c1` (stereo not drawn), 20.9 nM. As for `CC(NS(=O)(=O)C(C)(C)C)C(Cc1ccc(Cl)cc1)c1cccc(C#N)c1` (stereo not drawn), the figure is 1700 nM; as for `CC(NS(C)(=O)=O)C(Cc1ccc(Cl)cc1)c1cccc(C#N)c1` (stereo not drawn), 2040 nM; as for `CC(C)NC(=O)N1CCN(C(c2ccc(Cl)cc2)c2ccccc2Cl)CC1` (stereo not drawn), 398 nM. As for `Cc1ccccc1C(c1ccc(Cl)cc1)N1CCN(C(=O)NC(C)C)CC1` (stereo not drawn), the figure is 2190 nM. For the molecule `CC(NC(=O)C(C)(C)Oc1cc(F)cc(F)c1)C(Cc1ccc(Cl)cc1)c1ccccc1` (stereo not drawn), the IC50 is 1.12 nM. The figure for `CC(C)NC(=O)N1CCN(C(c2ccc(Br)cc2)c2ccccc2Cl)CC1` (stereo not drawn) is 776 nM; for `O=C(NCC1CCC1)N1CCN(C(c2ccc(Cl)cc2)c2ccc(Cl)cc2)CC1` it is 3470 nM. Turning to `CC(NC(=O)C(C)(C)Oc1ccc(Cl)cn1)C(Cc1ccc(Cl)cc1)c1ccccc1` (stereo not drawn), the IC50 was 1.32 nM.
